In a melting point compilation (Tetko et al.; mined from patent text by program, amines drawn as free bases though some values may be those of a salt):

| melting point [°C] | Structure (SMILES) |
| --- | --- |
| 161 to 162 | COc1c(NC(=O)CC(C)(C)C)c(C)c(C)c2c1C(c1ccc(C(C)C)cc1)CO2 (centres undefined) |
| 221 | Cc1ccc(N2C(=O)C(O)=C(C(=O)c3ccc(C(C)C)cc3)C2c2ccc(OC(F)(F)F)cc2)nn1 (centres undefined) |
| 326 | O=C(CCc1ccccc1)Nc1ccc(C(=O)NN=C2C(=O)Nc3ccc(Br)cc32)cc1 |
| 216 | O=c1[nH]c2cccc3c2n1CCC3 |
| 184 | O=C(O)Cc1nn(Cc2nc3cc(O)cc(O)c3s2)c(=O)c2ccccc12 |
| 111 to 112 | CCN(CC)C(=O)n1cnc(Sc2c(C)cccc2C)n1 |
| 109 to 112 | COC(=O)CCCc1cc2cc(Cl)ccc2n1S(=O)(=O)c1ccccc1 |
| 199 to 200 | COc1cc2c(cc1O)CCN(C(=O)c1ccc(OC)c(OC)c1)C2=O |
| 124 to 126 | Cc1nccn1Cc1nc2ccccc2n1-c1ccccc1 |
| 295 | NC(=O)c1cccc(-c2nc(=O)c3ccccc3s2)n1 |
| 178 to 180 | COc1ccc2c(c1)c(CC(=O)O)c(C)n2C(=O)c1ccc([N+](=O)[O-])o1 |
| 214 | O=C(Nc1ccc2oc3c(c2c1)CCCC3)c1ccc(Cl)cc1 |
| 97 to 99 | COc1cc(NCCCCCCN2CCN(C(=NC#N)SC)CC2)c2nccc(C)c2c1 |
| 60 to 61 | COC(=O)c1cc(Cl)cc2c1OCCN2 |
| 163 to 164 | Cc1ccc(-c2ccccc2C(=O)Nc2ccc(C(=O)N3C[C@@H]4C[C@@H](O)CN4c4ccccc43)cc2)cc1 |
| 163 to 164 | N#Cc1ccc(COc2ccc3ccccc3c2C=O)cc1 |
| 156 to 159 | COc1ccc(-c2ccnc(N3CCN(c4c(C)c(C)c5c(c4C)CC(C)(C)O5)CC3)n2)cc1 |
| 225 to 227 | O=C(O)c1c[nH]c2c1C(=O)CCCC2 |
| 207 | Fc1ccc(NC(=S)Nc2nc3ccc(OC(F)(F)F)cc3s2)cc1 |
| 44 to 45 | COc1nc(C)nc(C(F)(F)F)c1I |
| 201 to 203 | CC[C@H]1COC(=O)N1c1nc(-c2ccc(C#N)cc2)c(C#N)s1 |
| 115 to 117 | CNc1ccc(N=O)cc1 |
| 148 to 149 | COc1ccccc1CN[C@H]1CCCN(CCO)[C@H]1c1ccccc1 (relative stereo) |
| 145 to 147 | Cn1nc(Cl)c(C(=O)OC2COC2)c1S(N)(=O)=O |
| 106 | COc1ccc(-c2cc(Cl)cc3c2N(C)C(CN)CO3)c(C)c1 (centres undefined) |

| melting point [°C] | Structure (SMILES) |
| --- | --- |
| 293 to 295 | CS(=O)(=O)Nc1ccc(C(=O)Nc2cn3cc(Cl)ccc3n2)cc1 |
| 96 to 97 | CCOC(=O)Oc1ccc(S(=O)(=O)N2c3cc(F)ccc3-n3cccc3C2CC)cc1 (centres undefined) |
| 172 to 175 | CC(=O)Nc1ccc2[nH]cc(CC#N)c2c1 |
| 72 to 73 | N#Cc1ncccc1CCc1cccc(Cl)c1 |
| 152 to 155 | CCC(CC)c1ccc(Cl)c2nc3n(c12)CCCCN3c1ccc(C)cc1Br |
| 183 to 186 | Cc1noc(NS(=O)(=O)c2sccc2-c2ccc3c(c2)OCO3)c1Br |
| 205 to 215 | COc1cc2c(cc1C(F)(F)F)N(C(=O)Nc1ccc(-c3ccccn3)s1)CC2 |
| 94 to 95 | CCCCCc1ccc2cc(O)ccc2c1 |
| 257 to 261 | O=C1c2cccc3c(F)ccc(c23)C(=O)N1O |
| 156 to 157 | CCOC(=O)CNC(=O)/C=C/S(=O)(=O)c1ccccc1 |
| 90 to 92 | CCOC(=O)c1nnnn1Cc1ccccc1[N+](=O)[O-] |
| 143 to 148 | Cc1sc(C)c(NC(=S)Nc2c(Cl)cccc2Cl)c1N |
| 222 to 224 | S=C1NCC2c3ccccc3Cc3ccccc3N12 (centres undefined) |
| 194 | COC(C)c1cccc(NC(=O)NCC(=O)N(CC(=O)N(C)c2ccccc2)c2ccccc2)c1 (racemic) |
| 127 to 129 | C=C1CCC(C(O)C(N)=O)CC1 (centres undefined) |
| 101 to 102 | C=CCN1CCCC1CNC(=O)c1cc(S(=O)(=O)NC)cc2c1OCCO2 (centres undefined) |
| 169 to 170 | O=C1CC2CSc3sc(Br)cc3C2=NN1c1ccc(Cl)cc1 (centres undefined) |
| 84 to 85.5 | CC(C)NC(=O)N1C(=O)Cc2ccccc21 |
| 89 to 96 | COc1cc(C=C2CCCOC2CN)c([N+](=O)[O-])cc1OC (centres undefined) |
| 144 | OC1(c2ccc3c(c2)OCO3)CCN(Cc2ccccc2)CC1 |
| 77 to 80 | O=C(NC(=O)N(SN1CCOCC1)c1ccc(Oc2ccc(C(F)(F)F)cc2Cl)cc1F)c1c(F)cccc1F |
| 37 to 38 | COCc1ncnc(Cl)c1C |
| 203 to 204 | COc1cc(C=C2CCN(C(=O)NO)C2=O)cc(OC)c1O |
| 75 to 77 | COc1ccc2c(c1)C(CC#N)CN(C(=O)OC(C)(C)C)C2 (centres undefined) |
| 136 to 137 | O=c1c([N+](=O)[O-])c(Cl)nc2sc(CCC3CCCCC3)nn12 |

| melting point [°C] | Structure (SMILES) |
| --- | --- |
| 201 | Cc1ccncc1-c1cncc(OC2SCC(O)C(O)C2O)c1 (centres undefined) |
| 162 to 165 | c1cc(OC2CCNCC2)c2cn[nH]c2c1 |
| 166 to 168 | CC1=CC(OC(=O)c2ccc([N+](=O)[O-])cc2)C2OC1(OCCO)CC2(C)C (centres undefined) |
| 114 to 116 | CCC(O)c1ccc(-c2ccc(Cl)cc2)cc1 (centres undefined) |
| 233 to 234 | COc1ccc([C@@H]2O[C@@H](CC(=O)O)C(=O)N(CC(C)(C)C)c3ccc(Cl)cc32)c(OC)c1 |
| 200 to 202 | Cc1cccc(C)c1NC(=O)N(Cc1ccccc1)CC1(c2ccccc2)CCCC1 |
| 210 to 211 | COc1ccc2c(c1)Sc1nccnc1N2 |
| 87.5 to 88.5 | COc1cccnc1CSCCNC(=C[N+](=O)[O-])SC |
| 226 to 229 | CC(c1oc2ccccc2c(=O)c1-c1cccc(F)c1)n1nc(-c2ccc(Cl)s2)c2c(N)ncnc21 (centres undefined) |
| 253 to 255 | Cc1cc(C(=O)c2[nH]c3ccc(Cl)cc3c2CC(=O)O)no1 |
| 253 to 254 | O=C(NCc1cccc([N+](=O)[O-])c1)c1[nH]c2ccc(Cl)cc2c1S(=O)(=O)c1ccccc1 |
| 48 to 49 | Clc1ccc(OCc2ccc(Cl)s2)cc1 |
| 126 to 128 | CCOC(=S)SC(=CC(=O)c1cc(Cl)c(C)c(Cl)c1)C(=O)O |
| 198 to 199 | CSc1nn(-c2c(Cl)cc(Cl)cc2Cl)c(N)c1C(N)=O |
| 114 to 115 | Cc1oc(-c2ccccc2)nc1COc1ccc2cc(CCCCc3nnn[nH]3)oc2c1 |
| 203 to 204 | COc1ccc(CNc2nc[nH]n2)cc1OC1CCCC1 |
| 168 to 172 | C[C@]1(CN2CCCc3ccccc32)Cn2cc([N+](=O)[O-])nc2O1 |
| 141 to 142 | O=C(NC12CC3CC(CC(C3)C1)C2)c1ncon1 |
| 47 to 49 | Nc1nc(OC(F)(F)F)cc(C(F)(F)F)n1 |
| 62 to 65 | CCc1cc(C)cc(CC)c1C1C(=O)CC(CC(C)S(=O)(=O)CC)CC1=O (centres undefined) |
| 145 to 146 | CCCCCN1C(=O)C(=O)c2cc(SCCCc3ccc(C(=O)O)cc3)ccc21 |
| 89 to 90 | CC(C)CNCc1cccc(OCCCNc2nc(N)nn2C)c1 |
| 152 | COC(=O)C1=C(C)NC(C)=C(C(=O)OCc2ccc(OC)cc2)C1c1ccccc1[N+](=O)[O-] (centres undefined) |
| 155 to 157 | CCOc1ccccc1C1=NN(C(=O)c2cccnc2)CC1 |
| 286 to 287 | CC(N)C1CCC(C(=O)Nc2ccncc2)CC1 (centres undefined) |

| melting point [°C] | Structure (SMILES) |
| --- | --- |
| 192 to 194 | COc1ccc(C(=CC(=O)N2CCOCC2)c2ccc(CC(=O)O)cc2)cc1OC |
| 249 to 250 | O=C1Nc2ccc(F)cc2Nc2sc3ccccc3c21 |
| 89 to 91 | CC1Cc2cc3c(cc2C(c2ccccc2)N1)OCO3 (centres undefined) |
| 118 | CC(C)(C)OC(=O)N(CC=Cc1ccccc1)S(N)(=O)=O |
| 54 to 56 | CN(C(=O)c1ccccc1)[Si](C)(C)N(C)C(=O)c1ccccc1 |
| 64 to 65 | COC(=O)c1cc(I)cn1C |
| 158 to 162 | COc1cc(OC)c(-c2cc3ccccc3[nH]2)cc1C=CC(=O)c1ccc(S(=O)(=O)N(C)C)cc1 |
| 156 | Fc1ccc(-c2ncc(Br)cn2)cc1 |
| 140 to 142 | CCCCCCOc1ccc(-c2nc(-c3ccc(OCCCCCC)cc3O)nc(-c3c(C)cc(C)cc3C)n2)c(O)c1 |
| 298 to 299 | CCCCc1nc2ccc(C)c(C(=O)O)c2n1Cc1ccc(-c2ccccc2-c2nnn[nH]2)cc1 |
| 224 to 230 | O=c1[nH]c(=O)n(Cc2ccc(OCCc3coc(-c4ccccc4)n3)cc2)[nH]1 |
| 214 to 216 | CCc1c(Sc2cc(Cl)cc(Cl)c2)c(C(N)=O)nn1CCO |
| 115 to 117 | CSc1nc2ccc(Cl)cc2c(-c2ccccc2)c1N |
| 89 to 90 | CC(=O)NCCCCc1ccc(C(=O)CC(C)C#N)cc1 (centres undefined) |
| 166 to 168 | O=S(c1[nH]c(Br)c(Br)c1-c1ccc(Cl)cc1)C(F)(F)F (centres undefined) |
| 94 to 99 | CCc1ccc(-c2ccc(NC(=O)OC(C)(C)C)c([N+](=O)[O-])c2)cc1 |
| 140 to 142 | CCCCc1oc2ccccc2c1/C=N/OCCCOc1ccc(C(=O)O)c(O)c1 |
| 126 to 129 | CCCc1c(O)ccc2c1OCCC2=O |
| 148 to 154 | CC(CCc1cc2cccnc2n(-c2cccc(N(C)C)c2)c1=O)c1ccncc1 (centres undefined) |
| 236 to 237 | Nc1ccc2ccccc2c1-c1c(O)ccc2ccccc12 |
| 190 to 191 | COCc1c(C(=O)OC(C)C)ncc2[nH]c3cccc(Oc4ccc(Cl)cn4)c3c12 |
| 88 to 88.3 | CCOC(=O)C(O)(CC(=O)c1ccc(-c2ccccc2)cc1)C(=O)OCC |
| 163 to 165 | Cc1ccc(S(=O)(=O)N2N=C(c3ccccc3)CC3CC=CC32)cc1 (centres undefined) |
| 280 | O=C(O)c1ccc(Cl)c2c1[nH]c1ccccc12 |
| 127 to 128 | COc1ccc(Cc2ccc(NC3=NCCN3)cc2OC)cc1 |

| Structure (SMILES) | melting point [°C] |
| --- | --- |
| O=[N+]([O-])C1([N+](=O)[O-])COC1 | 70 to 71 |
| Cc1nccc2c1[nH]c1cc(O)ccc12 | 248 |
| CCNC(=O)c1ncn2c1CN=C(c1ccccc1Br)c1cc(F)ccc1-2 | 218 to 220 |
| CC[C@H]1[C@H](O)CC(=O)N1c1ccc(C#N)c(C(F)(F)F)c1 | 111 to 112 |
